Results from paper PMC8279409, “Novel Mixed NOP/Opioid Receptor Peptide Agonists” (Journal of Medicinal Chemistry, 2021).
Read-outs that look alike come from different tables or passages of the source. Where a SMILES comes first, the peptide text is derived from it. [ ]: non-standard residue; d: D form. Phe(4-F) = N[C@@H](Cc1ccc(F)cc1)C(=O)O; hPhe = N[C@@H](CCc1ccccc1)C(=O)O; Phg = N[C@H](C(=O)O)c1ccccc1; Nle = CCCC[C@H](N)C(=O)O; Dab = NCC[C@H](N)C(=O)O; Nva = CCC[C@H](N)C(=O)O; Abu = CC[C@H](N)C(=O)O; Dap = NC[C@H](N)C(=O)O

What was measured:
[1] = target: T1, human mu receptor (Homo sapiens, UniProt P35372); assay: Calcium mobilization, mu opioid receptor; type: cell-based; details: for mu pEC50 (CL95%): CHO cells coexpressing human mu receptor and Gαqi5, Fluo-4 AM, 37 °C, mean of at least three experiments in duplicate, CL95% in brackets; for mu Emax ± S.E.M. / activation at 10 µM / Emax: percent over the baseline fluorescence; for mu Emax ± S.E.M. / Emax: mean ± SEM of at least three experiments in duplicate; for pEC50_mu: molecular formula strings CSV, repeats calcium mobilization values of Tables 1-3; for activation at 10 µM: mean ± SEM; for activation at 10 µM / Emax: SEM
T1 construct: expressed in transfected cells; host or cells: CHO cells stably coexpressing the receptor and chimeric Gαqi5
T1 sequence (P35372 whole entry): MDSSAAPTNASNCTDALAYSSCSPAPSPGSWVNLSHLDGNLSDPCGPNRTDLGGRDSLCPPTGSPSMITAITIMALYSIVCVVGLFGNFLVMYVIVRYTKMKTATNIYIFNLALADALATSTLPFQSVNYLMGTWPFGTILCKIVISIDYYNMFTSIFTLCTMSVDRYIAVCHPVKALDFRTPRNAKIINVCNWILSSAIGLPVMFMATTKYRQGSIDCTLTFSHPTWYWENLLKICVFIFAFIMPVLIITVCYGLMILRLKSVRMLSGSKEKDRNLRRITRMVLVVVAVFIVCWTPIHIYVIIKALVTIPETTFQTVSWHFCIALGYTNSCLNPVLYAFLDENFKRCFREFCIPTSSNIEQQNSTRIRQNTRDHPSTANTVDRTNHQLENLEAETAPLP

[2] = target: T2, human NOP receptor (Homo sapiens, UniProt P41146); assay: Calcium mobilization, NOP receptor; type: cell-based; details: for NOP pEC50 (CL95%): CHO cells coexpressing human NOP and Gαqi5, Fluo-4 AM, 37 °C, mean of at least three experiments in duplicate, CL95% in brackets; for NOP/mu CR (concentration ratio): calcium mobilization, NOP versus mu; for Emax: mean ± SEM of at least three experiments in duplicate, SEM
T2 construct: expressed in transfected cells; host or cells: CHO cells stably coexpressing the receptor and chimeric Gαqi5
T2 sequence (P41146 whole entry): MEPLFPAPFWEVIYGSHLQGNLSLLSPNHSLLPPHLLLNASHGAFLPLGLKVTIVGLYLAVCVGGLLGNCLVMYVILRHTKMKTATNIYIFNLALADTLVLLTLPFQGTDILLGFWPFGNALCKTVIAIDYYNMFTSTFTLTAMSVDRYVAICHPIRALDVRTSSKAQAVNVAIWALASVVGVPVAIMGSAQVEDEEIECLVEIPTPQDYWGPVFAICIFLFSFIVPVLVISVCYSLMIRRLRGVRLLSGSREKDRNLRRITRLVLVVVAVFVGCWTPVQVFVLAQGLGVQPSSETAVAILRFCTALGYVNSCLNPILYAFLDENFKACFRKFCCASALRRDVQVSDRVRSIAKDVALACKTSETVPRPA
Method: CHO cells stably coexpressing the human NOP or kappa or the mu receptor and the C-terminally modified Gαqi5 and CHO cells coexpressing the delta receptor and the GαqG66Di5 protein were generated and cultured as described previously.[45],[46] Cells were maintained in Dulbecco’s modified Eagle’s medium/nutrient mixture F-12 (DEMEM/F-12) supplemented with 10% FBS, 100 U/mL penicillin and 100 μg/mL streptomycin, 100 μg/mL hygromicin B, and 200 μg/mL G418 and cultured at 37 °C in 5% CO2 humidified air. Cells were seeded at a density of 50,000 cells/well into 96-well black, clear-bottom plates. The following day, the cells were incubated with Hanks’ balanced salt solution (HBSS) supplemented with 2.5 mM probenecid, 3 μM of the calcium-sensitive fluorescent dye Fluo-4 AM, and 0.01% pluronic acid for 30 min at 37 °C. After that time, the loading solution was aspirated and 100 μL/well of HBSS supplemented with 20 mM HEPES, 2.5 mM probenecid, and 500 μM brilliant black was added. Serial dilutions were carried out in HBSS/HEPES (20 mM) buffer (containing 0.02% BSA fraction V). After placing both plates (cell culture and master plate) into the fluorometric imaging plate reader FlexStation II (Molecular Devices, Sunnyvale, CA), fluorescence changes were measured. On-line additions were carried out in a volume of 50 μL/well. To facilitate drug diffusion into the wells, the present studies were performed at 37 °C. Maximum change in fluorescence, expressed as percent over the baseline fluorescence, was used to determine agonist response.
The pharmacological terminology adopted in this paper is consistent with IUPHAR recommendations.[59] All data are expressed as the mean ± standard error of the mean (SEM) of at least three experiments performed in duplicate. […] Concentration-response curves to agonists were fitted to the classical four-parameter logistic nonlinear regression model:
Effect = Baseline + (Emax – Baseline)/(1 + 10^(LogEC50 – Log[compound]) × Hillslope). Curve fitting was performed using PRISM 6.0 (GraphPad Software Inc., San Diego).

[3] = read-out: NOP Emax ± S.E.M., Table 1 series, maximum change in fluorescence as percent over the baseline fluorescence
[4] = read-out: mu effect at 10 μM (crc incomplete), Table 1 series
[5] = read-out: mu Emax ± S.E.M, Table 1 series
[6] = read-out: NOP Emax ± S.E.M., Table 2 series, percent over the baseline fluorescence
[7] = read-out: mu effect at 10 μM (crc incomplete), Table 2 series

Structure (SMILES)	mu pEC50 (CL95%) ([1]; Table 1 series)	mu pEC50 (CL95%) ([1]; Table 2 series)	pEC50_mu [1]	NOP pEC50 (CL95%) ([2]; Table 1 series, FlexStation II)	NOP/mu CR (concentration ratio) ([2]; Table 1 series)	Emax [2, 3] [%]	activation at 10 µM [1, 4] [%]	Emax [2, 6] [%]	activation at 10 µM [1, 7] [%]	other results
C[C@H](NC(=O)CNC(=O)[C@@H](NC(=O)[C@H](Cc1ccccc1)NC(=O)CNC(=O)CNC(=O)[C@@H](N)Cc1ccccc1)[C@@H](C)O)C(=O)N[C@@H](CCCNC(=N)N)C(=O)N[C@@H](CCCCN)C(=O)N[C@@H](CO)C(=O)N[C@@H](C)C(=O)N[C@@H](CCCNC(=N)N)C(=O)N[C@@H](CCCCN)C(N)=O [Compound 1, N/OFQ(1-13)NH2, reference compound]	inactive	inactive	inactive							mu Emax ± S.E.M. ([1]; Table 1 series): inactive; mu Emax ± S.E.M. ([1]; Table 2 series): inactive; mu pEC50 (CL95%) ([1]; Table 3 series): inactive; mu Emax ± S.E.M. ([1]; Table 3 series): inactive
CC[C@H](NC(=O)[C@H](Cc1ccccc1)NC(=O)CNC(=O)CNC(=O)[C@@H](N)Cc1ccc(O)cc1)C(=O)NCC(=O)N[C@@H](C)C(=O)N[C@@H](CCCNC(=N)N)C(=O)N[C@@H](CCCCN)C(=O)N[C@@H](CO)C(=O)N[C@@H](C)C(=O)N[C@@H](CCCNC(=N)N)C(=O)N[C@@H](CCCCN)C(N)=O [Compound 7, [Tyr^1,Abu^5]N/OFQ(1-13)-NH2] (H-YGGF[Abu]GARKSARK-NH2)	crc incomplete; 10 μM: 213 ± 37		crc incomplete	8.15 (7.61–8.69)	0.007	366 ± 20	213 ± 37			
C[C@H](NC(=O)CNC(=O)[C@H](CN)NC(=O)[C@H](Cc1ccccc1)NC(=O)CNC(=O)CNC(=O)[C@@H](N)Cc1ccc(O)cc1)C(=O)N[C@@H](CCCNC(=N)N)C(=O)N[C@@H](CCCCN)C(=O)N[C@@H](CO)C(=O)N[C@@H](C)C(=O)N[C@@H](CCCNC(=N)N)C(=O)N[C@@H](CCCCN)C(N)=O [Compound 9, [Tyr^1,Dap^5]N/OFQ(1-13)-NH2] (H-YGGF[Dap]GARKSARK-NH2)	crc incomplete; 10 μM: 144 ± 44		crc incomplete	7.20 (6.95–7.45)	0.06	367 ± 9	144 ± 44			
C[C@H](NC(=O)CNC(=O)[C@H](CCN)NC(=O)[C@H](Cc1ccccc1)NC(=O)CNC(=O)CNC(=O)[C@@H](N)Cc1ccc(O)cc1)C(=O)N[C@@H](CCCNC(=N)N)C(=O)N[C@@H](CCCCN)C(=O)N[C@@H](CO)C(=O)N[C@@H](C)C(=O)N[C@@H](CCCNC(=N)N)C(=O)N[C@@H](CCCCN)C(N)=O [Compound 10, [Tyr^1,Dab^5]N/OFQ(1-13)-NH2] (H-YGGF[Dab]GARKSARK-NH2)	crc incomplete; 10 μM: 41 ± 4		crc incomplete	6.43 (6.28–6.58)	0.37	340 ± 22	41 ± 4			
CCCC[C@H](NC(=O)[C@H](Cc1ccccc1)NC(=O)CNC(=O)CNC(=O)[C@@H](N)Cc1ccc(O)cc1)C(=O)NCC(=O)N[C@@H](C)C(=O)N[C@@H](CCCNC(=N)N)C(=O)N[C@@H](CCCCN)C(=O)N[C@@H](CO)C(=O)N[C@@H](C)C(=O)N[C@@H](CCCNC(=N)N)C(=O)N[C@@H](CCCCN)C(N)=O [Compound 12, [Tyr^1,Nle^5]N/OFQ(1-13)-NH2] (H-YGGF[Nle]GARKSARK-NH2)	6.74 (6.15–7.33)			8.77 (8.45–9.09)	0.01	375 ± 9				Emax [1, 5]: 323 ± 4%
CCC[C@H](NC(=O)[C@H](Cc1ccccc1)NC(=O)CNC(=O)CNC(=O)[C@@H](N)Cc1ccc(O)cc1)C(=O)NCC(=O)N[C@@H](C)C(=O)N[C@@H](CCCNC(=N)N)C(=O)N[C@@H](CCCCN)C(=O)N[C@@H](CO)C(=O)N[C@@H](C)C(=O)N[C@@H](CCCNC(=N)N)C(=O)N[C@@H](CCCCN)C(N)=O [Compound 13, [Tyr^1,Nva^5]N/OFQ(1-13)-NH2] (H-YGGF[Nva]GARKSARK-NH2)	6.25 (5.59–6.91)			8.43 (7.55–9.31)	0.007	358 ± 14				Emax [1, 5]: 313 ± 19%
C[C@H](NC(=O)CNC(=O)[C@H](CCc1ccccc1)NC(=O)[C@H](Cc1ccccc1)NC(=O)CNC(=O)CNC(=O)[C@@H](N)Cc1ccc(O)cc1)C(=O)N[C@@H](CCCNC(=N)N)C(=O)N[C@@H](CCCCN)C(=O)N[C@@H](CO)C(=O)N[C@@H](C)C(=O)N[C@@H](CCCNC(=N)N)C(=O)N[C@@H](CCCCN)C(N)=O [Compound 18, [Tyr^1,hPhe^5]N/OFQ(1-13)-NH2] (H-YGGF[hPhe]GARKSARK-NH2)		crc incomplete; 10 μM: 228 ± 29	crc incomplete					301 ± 26	228 ± 29	NOP pEC50 (CL95%) ([2]; Table 2 series): 8.70 (8.24–9.16); NOP/mu CR (concentration ratio) ([2]; Table 2 series): 0.003
C[C@H](NC(=O)CNC(=O)[C@@H](NC(=O)[C@H](Cc1ccccc1)NC(=O)CNC(=O)CNC(=O)[C@@H](N)Cc1ccc(O)cc1)c1ccccc1)C(=O)N[C@@H](CCCNC(=N)N)C(=O)N[C@@H](CCCCN)C(=O)N[C@@H](CO)C(=O)N[C@@H](C)C(=O)N[C@@H](CCCNC(=N)N)C(=O)N[C@@H](CCCCN)C(N)=O [Compound 19, [Tyr^1,Phg^5]N/OFQ(1-13)-NH2] (H-YGGF[Phg]GARKSARK-NH2)		6.81 (6.33–7.29)						293 ± 31		NOP pEC50 (CL95%) ([2]; Table 2 series): 7.57 (7.12–8.02); NOP/mu CR (concentration ratio) ([2]; Table 2 series): 0.17; Emax ([1]; read-out: mu Emax ± S.E.M., Table 2 series): 287 ± 48%
COc1ccc(C[C@H](NC(=O)[C@H](Cc2ccccc2)NC(=O)CNC(=O)CNC(=O)[C@@H](N)Cc2ccc(O)cc2)C(=O)NCC(=O)N[C@@H](C)C(=O)N[C@@H](CCCNC(=N)N)C(=O)N[C@@H](CCCCN)C(=O)N[C@@H](CO)C(=O)N[C@@H](C)C(=O)N[C@@H](CCCNC(=N)N)C(=O)N[C@@H](CCCCN)C(N)=O)cc1 [Compound 20, [Tyr^1,p(OCH3)Phe^5]N/OFQ(1-13)-NH2] (H-YGGFY(Me)GARKSARK-NH2)		crc incomplete; 10 μM: 221 ± 49	crc incomplete					246 ± 18	221 ± 49	
C[C@H](NC(=O)CNC(=O)[C@H](Cc1ccc(F)cc1)NC(=O)[C@H](Cc1ccccc1)NC(=O)CNC(=O)CNC(=O)[C@@H](N)Cc1ccc(O)cc1)C(=O)N[C@@H](CCCNC(=N)N)C(=O)N[C@@H](CCCCN)C(=O)N[C@@H](CO)C(=O)N[C@@H](C)C(=O)N[C@@H](CCCNC(=N)N)C(=O)N[C@@H](CCCCN)C(N)=O [Compound 21, [Tyr^1,(pF)Phe^5]N/OFQ(1-13)-NH2] (H-YGGF[Phe(4-F)]GARKSARK-NH2)		crc incomplete; 10 μM: 256 ± 55	crc incomplete					311 ± 22	256 ± 55	
